# Experimental data: PubChem BioAssay (NCI)
#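 In this assay, cells in 96-well plates receive the compound at five concentrations for 48 hours. Endpoints are linearly interpolated between the surrounding concentrations. GI50 = concentration required for 50% inhibition of growth. TGI: concentration producing complete growth inhibition.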
# Tests used:
# Assay in all cases: growth of human tumour cells (NCI), 48 h
# [1] = test system: NCI-H23 lung
# [2] = test system: OVCAR-5 ovarian
# [3] = test system: OVCAR-4 ovarian
# [4] = test system: M14 melanoma
# [5] = test system: EKVX NSCLC
# [6] = test system: DU-145 prostate
# [7] = test system: MOLT-4 leukemia
# [8] = test system: SNB-75 CNS
# [9] = test system: HS 578T breast
# [10] = test system: A498 renal
SMILES,GI50 [1],TGI [1],GI50 [2],TGI [2],GI50 [3],TGI [3],GI50 [4],TGI [4],GI50 [5],TGI [5],GI50 [6],TGI [6],GI50 [7],TGI [7],GI50 [8],TGI [8],GI50 [9],TGI [9],GI50 [10],TGI [10]
COC(=O)c1cc2oc(/C=C3/SC(=S)N(NC(C)=O)C3=O)cc2n1C,16.6 µM,50.1 µM,21.7 µM,54.9 µM,37.7 µM,> 100 µM,10.8 µM,31.8 µM,11.3 µM,40.5 µM,8.76 µM,25.4 µM,11.3 µM,62.1 µM,34.7 µM,> 100 µM,15.2 µM,59.2 µM,10.8 µM,28.1 µM
C=C(C)C12OC1[C@@]1(C)C(=CC2=O)CCC(O)[C@@H]1C (stereo not given in full),,16.2 µM,,> 100 µM,,> 100 µM,,18.1 µM,,6.69 µM,,33.1 µM,,3.66 µM,,38.8 µM,,9.26 µM,,62.5 µM
NC(N)=NS(=O)(=O)c1ccc(N=Nc2c(O)c(C(=O)O)cc3ccccc23)cc1,,> 100 µM,,> 100 µM,,> 100 µM,,> 100 µM,,> 100 µM,,> 100 µM,,> 100 µM,,> 100 µM,,> 100 µM,,
COc1cc(-c2nc3sccn3c2-c2ccnc(NCCNS(=O)(=O)c3ccc(F)cc3)n2)ccc1F,2.96 µM,> 100 µM,6.51 µM,> 100 µM,3.4 µM,> 100 µM,0.499 µM,> 100 µM,3.4 µM,> 100 µM,2.42 µM,> 100 µM,,,1.54 µM,> 100 µM,1.88 µM,> 100 µM,2.4 µM,> 100 µM
CN(C)c1ccc(/C=N/NC(=S)Nc2ccccc2)cc1,,> 100 µM,,> 100 µM,,> 100 µM,,> 100 µM,,> 100 µM,,> 100 µM,,> 100 µM,,> 100 µM,,> 100 µM,,> 100 µM
C=C(C)C(=O)O[C@@H]1C[C@@]2(C)O[C@@H]2C[C@H](O)/C(C)=C/[C@H]2OC(=O)C(=C)[C@@H]21,,> 100 µM,,> 100 µM,,78.9 µM,,> 100 µM,,> 100 µM,,> 100 µM,,> 100 µM,,> 100 µM,,> 100 µM,,> 100 µM
Cn1cc(-c2cc3c(N4CCN(c5ncc([C@@](C)(N)c6ccc(F)cc6)cn5)CC4)ncnn3c2)cn1,,,,,2.45 µM,> 100 µM,4.42 µM,> 100 µM,4.14 µM,> 100 µM,> 100 µM,> 100 µM,2.52 µM,> 100 µM,1.39 µM,> 100 µM,1.82 µM,> 100 µM,6.24 µM,> 100 µM
CC(=O)OCc1ccc2c(c1)C(O)NC(=O)O2 (stereo not given),,> 100 µM,,> 100 µM,,> 100 µM,,> 100 µM,,> 100 µM,,> 100 µM,,> 100 µM,,> 100 µM,,> 100 µM,,
COc1ccc2ncnc(Nc3ccc(OCc4ccccc4)cc3)c2c1,8.48 µM,> 25 µM,6.57 µM,> 22.6 µM,7.38 µM,> 25 µM,8.48 µM,> 25 µM,2.25 µM,12.9 µM,8.2 µM,> 25 µM,7.56 µM,> 23.5 µM,9.78 µM,> 25 µM,10.2 µM,> 25 µM,2.14 µM,14.1 µM
CC(=C(c1ccc(OCCN2CCCCC2)cc1)c1ccc(OCCN2CCCCC2)cc1)c1ccc(Cl)cc1,0.466 µM,0.913 µM,0.417 µM,0.771 µM,0.46 µM,0.893 µM,0.438 µM,0.837 µM,0.433 µM,0.857 µM,0.458 µM,0.87 µM,0.449 µM,0.982 µM,0.325 µM,0.673 µM,0.458 µM,1.04 µM,0.386 µM,0.755 µM
COc1ccc(CN2C(=O)C(Cl)=C(Nc3cccc(C(F)(F)F)c3)C2=O)cc1,8.08 µM,42.4 µM,18 µM,48.7 µM,4.74 µM,30.6 µM,,,8.34 µM,68.7 µM,8.19 µM,21.6 µM,2.39 µM,9.29 µM,11.9 µM,27.3 µM,3.14 µM,13.1 µM,2.61 µM,9.02 µM
CCNC(=O)C#Cc1ccc2c(C(=Nc3ccc(CN(C)C)cc3)c3ccccc3)c(O)[nH]c2c1,0.0614 µM,> 4.28 µM,0.0262 µM,0.732 µM,0.61 µM,7.63 µM,0.00782 µM,0.114 µM,0.47 µM,> 10 µM,1.26 µM,> 10 µM,0.199 µM,2.76 µM,0.75 µM,2.21 µM,0.291 µM,1.66 µM,0.0274 µM,0.179 µM
Nc1nc2[nH]cc(CCc3ccc(C(=O)N[C@@H](CCC(=O)O)C(=O)O)cc3)c2c(=O)[nH]1,,> 100 µM,,> 100 µM,,> 100 µM,0.158 µM,> 100 µM,,> 100 µM,,> 100 µM,0.53 µM,> 100 µM,,> 100 µM,,> 100 µM,0.124 µM,> 100 µM
C=C1C[C@H](O)[C@H](Br)C(C)(C)[C@@]12CCC(C)=C(Cl)C2,0.173 µM,2.99 µM,0.342 µM,8.87 µM,0.155 µM,7.81 µM,0.314 µM,1.66 µM,0.0371 µM,1.37 µM,0.276 µM,3.25 µM,0.229 µM,0.795 µM,0.16 µM,0.785 µM,0.289 µM,2.98 µM,0.838 µM,4.04 µM
Cc1ccc(-c2nc(N3CCNCC3)c3oc(-c4ccc(C)cc4)nc3n2)cc1,,,5.21 µM,17.9 µM,2.22 µM,10.6 µM,1.83 µM,3.69 µM,> 36.3 µM,> 51.7 µM,1.98 µM,3.76 µM,2.2 µM,4.69 µM,8.66 µM,> 32.1 µM,,> 24.2 µM,15.8 µM,32 µM
